Here are results for 1 compound from article PMC11576293, “New series of 4,6-diaryl pyrimidines: facile synthesis and antiproliferative activity as dual EGFR/VEGFR-2 inhibitors” (Frontiers in Chemistry, 2024).

The term inhibition denotes the percentage by which the read-out fell short of the control. What is called viability is the share of living cells, or the viability signal relative to a control. Read a high viability as less harm to the cells. In general, IC50 refers to the concentration that gives 50% inhibition. The term melting point denotes the temperature of the solid-liquid transition.

The test system of one data set is CAKI-1. Nature of the data set: NCI-60 single-dose screen. The data set is classed as cell-based. The note with it: Homo sapiens, single dose 10 µM, '-' = no inhibition, read-out: % Growth Inhibition. Here is the method:
(§1) The National Cancer Institute’s Developmental Therapeutic Program (www.dtp.nci.nih.gov) has tested compounds 9–29 (except compounds 21 and 22) against 60 cancer cell lines from nine types (leukemia, lung, colon, CNS, melanoma, ovarian, renal, prostate, and breast cancer) at a single dose (10 μM) ([El-Sherief et al., 2018]). […] The most sensitive cells included leukemia (SR, K-562, and MOLT-4), lung (NCI-H522, […], and EKVX), breast (MCF-7 and T-47D), colon (HCT-15 and HT-29), and ovarian (NCI/ADR-RES).
(§2) The National Cancer Institute’s Developmental Therapeutic Program (www.dtp.nci.nih.gov) evaluated compounds 9–29 (excluding 21 and 22) against 60 cancer cell lines from nine categories (leukemia, lung, colon, CNS, melanoma, ovarian, renal, prostate, and breast cancer) at a single dose (10 μM) ([El-Sherief et al., 2018]). See Supplementary Material A1 for more details.
Take `COc1ccc(-c2cc(-c3ccc(Cl)cc3)nc(SC)n2)cc1` [Compound 9, 4-(4-Chlorophenyl)-6-(4-methoxyphenyl)-2-(methylthio)pyrimidine]: the inhibition at 10 µM was 28.8%.

The test system of a further data set is DU-145. Nature of the data set: NCI-60 single-dose screen. The data set is classed as cell-based. As to conditions: Homo sapiens, single dose 10 µM, '-' = no inhibition, read-out: % Growth Inhibition. How it is done: as §1, §2
As for `COc1ccc(-c2cc(-c3ccc(Cl)cc3)nc(SC)n2)cc1` [Compound 9, 4-(4-Chlorophenyl)-6-(4-methoxyphenyl)-2-(methylthio)pyrimidine], the inhibition at 10 µM worked out at 5.68%.

Another data set deals with HCT-116. Nature of the data set: NCI-60 single-dose screen. The data set is classed as cell-based. As to conditions: Homo sapiens, single dose 10 µM, '-' = no inhibition, read-out: % Growth Inhibition. How it is done:
as §1, §2
For the compound `COc1ccc(-c2cc(-c3ccc(Cl)cc3)nc(SC)n2)cc1` [Compound 9, 4-(4-Chlorophenyl)-6-(4-methoxyphenyl)-2-(methylthio)pyrimidine], the inhibition at 10 µM is 5.47%.

Another data set deals with HOP-92. Nature of the data set: NCI-60 single-dose screen. As to conditions: Homo sapiens, single dose 10 µM, '-' = no inhibition, read-out: % Growth Inhibition. The data set is classed as cell-based. How it is done: as §1, §2
In the case of `COc1ccc(-c2cc(-c3ccc(Cl)cc3)nc(SC)n2)cc1` [Compound 9, 4-(4-Chlorophenyl)-6-(4-methoxyphenyl)-2-(methylthio)pyrimidine], the inhibition at 10 µM worked out at 3.16%.

The test system of the next data set is HS 578T. Nature of the data set: NCI-60 single-dose screen. As to conditions: Homo sapiens, single dose 10 µM, '-' = no inhibition, read-out: % Growth Inhibition. It counts as cell-based. Here is the method:
as §1, §2
Turning to `COc1ccc(-c2cc(-c3ccc(Cl)cc3)nc(SC)n2)cc1` [Compound 9, 4-(4-Chlorophenyl)-6-(4-methoxyphenyl)-2-(methylthio)pyrimidine], the inhibition at 10 µM was determined as 7.95%.

The next data set relates to MDA-MB-435. Nature of the data set: NCI-60 single-dose screen. The data set is classed as cell-based. The note with it: Homo sapiens, single dose 10 µM, '-' = no inhibition, read-out: % Growth Inhibition. Here is the method: as §1, §2
Take `COc1ccc(-c2cc(-c3ccc(Cl)cc3)nc(SC)n2)cc1` [Compound 9, 4-(4-Chlorophenyl)-6-(4-methoxyphenyl)-2-(methylthio)pyrimidine]: the inhibition at 10 µM was determined as 1.45%.

In a further data set the test system is OVCAR-3. Nature of the data set: NCI-60 single-dose screen. It counts as cell-based. The note with it: Homo sapiens, single dose 10 µM, '-' = no inhibition, read-out: % Growth Inhibition. Here is the method: as §1, §2
`COc1ccc(-c2cc(-c3ccc(Cl)cc3)nc(SC)n2)cc1` [Compound 9, 4-(4-Chlorophenyl)-6-(4-methoxyphenyl)-2-(methylthio)pyrimidine]: the inhibition at 10 µM is less than 0%.

Another data set relates to SF-295. Nature of the data set: NCI-60 single-dose screen. The data set is classed as cell-based. As to conditions: Homo sapiens, single dose 10 µM, '-' = no inhibition, read-out: % Growth Inhibition. How it is done: as §1, §2
Turning to `COc1ccc(-c2cc(-c3ccc(Cl)cc3)nc(SC)n2)cc1` [Compound 9, 4-(4-Chlorophenyl)-6-(4-methoxyphenyl)-2-(methylthio)pyrimidine], the inhibition at 10 µM is 7.84%.

In a further data set the test system is SN12C. Nature of the data set: NCI-60 single-dose screen. It counts as cell-based. The note with it: Homo sapiens, single dose 10 µM, '-' = no inhibition, read-out: % Growth Inhibition. Here is the method:
as §1, §2
For the compound `COc1ccc(-c2cc(-c3ccc(Cl)cc3)nc(SC)n2)cc1` [Compound 9, 4-(4-Chlorophenyl)-6-(4-methoxyphenyl)-2-(methylthio)pyrimidine], the inhibition at 10 µM came to 11.2%.

The next data set deals with SW-620. Nature of the data set: NCI-60 single-dose screen. The data set is classed as cell-based. As to conditions: Homo sapiens, single dose 10 µM, '-' = no inhibition, read-out: % Growth Inhibition. How it is done: as §1, §2
As to `COc1ccc(-c2cc(-c3ccc(Cl)cc3)nc(SC)n2)cc1` [Compound 9, 4-(4-Chlorophenyl)-6-(4-methoxyphenyl)-2-(methylthio)pyrimidine], the inhibition at 10 µM came out at 6.31%.

Tested on in a further data set: not listed separately
Nature of the data set: Cell viability assay (MTT) on normal cells. It counts as cell-based. As to conditions: human, MCF-10A normal mammary gland epithelial cells, 4 days incubation. How it is done: This experiment examines the impact of the newly developed compounds 9–29 on normal cell lines to assess their safety level. The vitality of the investigated compounds was assessed using the MCF-10 A cell line, a normal human mammary gland epithelial cell line. Following 4 days of incubation on MCF-10 A cells with each examined compound at a concentration of 50 μM, the vitality of the cells was assessed using the MTT test ([Mahmoud et al., 2022]; [Mekheimer et al., 2022]).
This experiment examines the impact of the newly developed compounds 9–29 on normal cell lines to assess their safety level. The viability of 9–29 was assessed using the MCF-10 A cell line, a normal human mammary gland epithelial cell line. Following 4 days of incubation on MCF-10 A cells with each examined compound at a concentration of 50 μM, the vitality of the cells was assessed using the MTT test ([Mahmoud et al., 2022]; [Mekheimer et al., 2022]). Refer to Supplementary Material A1 for more details. […]
4.2. Biological evaluation
4.2.1. Cytotoxic activity using MTT Assay and evaluation of IC50
MTT assay was carried out to study the effect of compounds on mammary epithelial cells (MCF-10A). The medium in which cells were propagated contained Dulbecco's modified Eagle's medium (DMEM)/ Ham's F-12 medium (1:1) supplemented with epidermal growth factor (20 ng/mL), hydrocortisone (500 ng/mL), insulin (10 μg/mL), 2 mM glutamine and 10% foetal calf serum.
After every 2-3 days, the cells were passaged using trypsin ethylenediamine tetra acetic acid (EDTA). The cells were seeded at a density of 10^4 cells mL-1 in flat-bottomed culture plates containing 96 wells each. After 24 h, medium was removed from the plates and the compounds in (in 0.1% DMSO) were added (in 200 μL medium to yield a final concentration of 0.1% v/v) to the wells of plates. A single compound was designated with four wells followed by incubation of plates for 96h at 37°C. After incubation, medium was removed completely from the plates followed by addition of MTT (0.4 mg/mL in medium) to each well and subsequent incubation of plates for 3h. MTT (along with the medium) was removed and DMSO (150μL) was added to each well of the culture plates, followed by vertexing and subsequent measurement of absorbance (at 540 nm) using microplate reader. The data are shown as percentage inhibition of proliferation in comparison with controls containing 0.1% DMSO. […]
`COc1ccc(-c2cc(-c3ccc(Cl)cc3)nc(SC)n2)cc1` [Compound 9, 4-(4-Chlorophenyl)-6-(4-methoxyphenyl)-2-(methylthio)pyrimidine] displayed a viability at 4 days, 50 µM of 91%.

A further data set deals with A-549. Nature of the data set: Antiproliferative assay (MTT). The data set is classed as cell-based. The note with it: Homo sapiens, A549, A-549 (lung), read-out: Antiproliferative activity IC50 ± SEM, A-549. The text has this: (§3) The MTT test was employed for this investigation ([Hisham et al., 2022]; [El-Sherief et al., 2019]; [Ramadan et al., 2020]). Table 2 presents the four cancer cell lines’ median inhibitory concentration (IC50) and GI50 (average IC50) values.
(§4) The MTT test was employed for this investigation ([Hisham et al., 2022]; [El-Sherief et al., 2019]; [Ramadan et al., 2020]). The IC50 values were derived from dose-response tests. The reported data are derived from at least two independent studies, each comprising three replicates per concentration. See Supplementary Material A1 for more details.
(§5) (in 0.1% DMSO) were added (in 200 μL medium to yield a final concentration of 0.1% v/v) to the wells of plates. A single compound was designated with four wells followed by incubation of plates for 96h at 37°C. After incubation, medium was removed completely from the plates followed by addition of MTT (0.4 mg/mL in medium) to each well and subsequent incubation of plates for 3h. MTT (along with the medium) was removed and DMSO (150μL) was added to each well of the culture plates, followed by vertexing and subsequent measurement of absorbance (at 540 nm) using microplate reader. The data are shown as percentage inhibition of proliferation in comparison with controls containing 0.1% DMSO.
(§6) 4.2.1.2. Assay for antiproliferative effect […]
(§7) (10%) and 1 µg/mL each of aprotinin, leupeptin and pepstatin for 120 min. The purification was performed either at 4 °C or on ice. To record autophosphorylation level, EGFR kinase assay was carried out on the basis of DELFIA/Time-Resolved Fluorometry. The compounds were first
(§8) (1 picture or pasted object on this page, not shown here)
`COc1ccc(-c2cc(-c3ccc(Cl)cc3)nc(SC)n2)cc1` [Compound 9, 4-(4-Chlorophenyl)-6-(4-methoxyphenyl)-2-(methylthio)pyrimidine]: the IC50 came to 60 ± 5 nM.

The next data set has as its system HT-29. Nature of the data set: Antiproliferative assay (MTT). The data set is classed as cell-based. The note with it: Homo sapiens, HT-29 (colon), read-out: Antiproliferative activity IC50 ± SEM, HT-29.
Text: as §3, §4, §5, §6, §7, §8
With `COc1ccc(-c2cc(-c3ccc(Cl)cc3)nc(SC)n2)cc1` [Compound 9, 4-(4-Chlorophenyl)-6-(4-methoxyphenyl)-2-(methylthio)pyrimidine], the IC50 turned out to be 62 ± 6 nM.

In another data set the test system is MCF-7. Nature of the data set: Antiproliferative assay (MTT). The data set is classed as cell-based. The note with it: Homo sapiens, MCF7, MCF-7 (breast), read-out: Antiproliferative activity IC50 ± SEM, MCF-7.
Text: as §3, §4, §5, §6, §7, §8
As to `COc1ccc(-c2cc(-c3ccc(Cl)cc3)nc(SC)n2)cc1` [Compound 9, 4-(4-Chlorophenyl)-6-(4-methoxyphenyl)-2-(methylthio)pyrimidine], the IC50 came to 65 ± 6 nM.

Another data set relates to Panc-1. Nature of the data set: Antiproliferative assay (MTT). It counts as cell-based. As to conditions: Homo sapiens, Panc-1 (pancreatic), read-out: Antiproliferative activity IC50 ± SEM, Panc-1.
Text: as §3, §4, §5, §6, §7, §8
With `COc1ccc(-c2cc(-c3ccc(Cl)cc3)nc(SC)n2)cc1` [Compound 9, 4-(4-Chlorophenyl)-6-(4-methoxyphenyl)-2-(methylthio)pyrimidine], the IC50 amounted to 62 ± 6 nM.

Tested on in the next data set: not given
Experiment: not given
Conditions: not given
Compound `COc1ccc(-c2cc(-c3ccc(Cl)cc3)nc(SC)n2)cc1` [Compound 9, 4-(4-Chlorophenyl)-6-(4-methoxyphenyl)-2-(methylthio)pyrimidine] displayed a melting point of 220 to 221 °C.
